In one experiment the target is CYP2C9 (Homo sapiens, UniProt P11712). Nature of the experiment: CYP2C9 inhibition (fluorescent substrate MFC). Conditions: read-out: Cyp IC50 2C9. Type of experiment: in vitro ADME. In short, it runs like this:
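IC50 derives from metabolite fluorescence against compound concentration, read at excitation 409 nm and emission 460 nm for CYP1A2/2C19 or 530 nm for CYP2C9/2D6. Incubations ran at 37° C for 15 min (1A2), 45 min (2C9) or 30 min (2C19, 2D6), after serial dilution into NADPH cofactor mix and 10 min preincubation.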

The target of the next experiment is T1, BCR-FMS BaF3 cells (Homo sapiens, UniProt P07333).
T1 construct: fused on or other part: P11274 (Breakpoint cluster region protein)
T1 sequence (P07333 582-910): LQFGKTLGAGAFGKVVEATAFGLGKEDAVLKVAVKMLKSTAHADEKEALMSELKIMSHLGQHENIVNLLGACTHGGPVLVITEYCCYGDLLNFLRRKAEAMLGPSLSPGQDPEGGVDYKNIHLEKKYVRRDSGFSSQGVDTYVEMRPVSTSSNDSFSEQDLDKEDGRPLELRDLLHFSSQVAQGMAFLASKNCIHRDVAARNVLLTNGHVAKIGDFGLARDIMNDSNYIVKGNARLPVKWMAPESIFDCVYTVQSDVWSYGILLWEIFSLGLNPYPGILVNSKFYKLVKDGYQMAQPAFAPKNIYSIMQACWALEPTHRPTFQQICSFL
Nature of the experiment: BaF3 BCR-FMS cell proliferation assay (ATPlite). As to conditions: read-out: Inhibition of Cell Proliferation IC50, BCR/BaF3 Fms. Type of experiment: cell-based. An outline of the steps: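 Cells are plated overnight: BaF3 at 10,000/well in G418 medium without WEHI/IL-3, MV-4-11 at 25,000/well in IMDM with 10% FBS. An 8-point 1:3 compound titration (10 μM top) is then added, and plates are incubated 3 days at 37 °C before ATPlite readout and IC50 determination.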

The source of these data is US8901118B2, “Compounds and methods for kinase modulation, and indications therefor” (Plexxikon Inc., priority 2010, dated 2014).

CYP2C9, sequence (P11712 whole entry): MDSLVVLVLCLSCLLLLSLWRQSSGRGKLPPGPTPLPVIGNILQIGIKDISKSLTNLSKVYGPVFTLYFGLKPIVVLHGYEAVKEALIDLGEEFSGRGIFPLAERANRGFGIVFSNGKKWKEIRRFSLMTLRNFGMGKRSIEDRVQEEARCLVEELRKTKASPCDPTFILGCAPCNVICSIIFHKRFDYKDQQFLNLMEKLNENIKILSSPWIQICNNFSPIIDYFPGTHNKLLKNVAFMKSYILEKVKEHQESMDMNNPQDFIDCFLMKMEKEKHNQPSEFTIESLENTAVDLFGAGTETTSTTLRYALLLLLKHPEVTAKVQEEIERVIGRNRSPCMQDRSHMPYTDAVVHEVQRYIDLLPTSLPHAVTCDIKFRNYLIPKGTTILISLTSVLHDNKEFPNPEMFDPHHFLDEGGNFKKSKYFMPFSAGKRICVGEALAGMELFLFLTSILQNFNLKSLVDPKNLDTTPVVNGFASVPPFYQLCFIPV

Take `CCOc1ncnc2[nH]cc(Cc3ccc(Nc4cnn(CC)c4)nc3F)c12` [Compound P-4012, [5-(4-Ethoxy-7H-pyrrolo[2,3-d]pyrimidin-5-ylmethyl)-6-fluoro-pyridin-2-yl]-(1-ethyl-1H-pyrazol-4-yl)-amine]: the IC50 at CYP2C9 was more than 10 µM; at BCR-FMS BaF3 cells it was less than 0.01 µM.

`CCn1cc(Nc2ccc(Cc3c[nH]c4ncnc(C)c34)c(F)n2)cn1` [Compound P-4013, (1-Ethyl-1H-pyrazol-4-yl)-[6-fluoro-5-(4-methyl-7H-pyrrolo[2,3-d]pyrimidin-5-ylmethyl)-pyridin-2-yl]-amine]: the IC50 at CYP2C9 is less than 5 µM; on BCR-FMS BaF3 cells it was less than 0.01 µM.

Take `CCn1cc(Nc2ccc(Cc3c[nH]c4ncnc(OCCOC)c34)c(F)n2)cn1` [Compound P-4014, (1-Ethyl-1H-pyrazol-4-yl)-{6-fluoro-5-[4-(2-methoxy-ethoxy)-7H-pyrrolo[2,3-d]pyrimidin-5-ylmethyl]-pyridin-2-yl}-amine]: the figures for the IC50 at CYP2C9 and on BCR-FMS BaF3 cells were 5 to 10 µM and less than 0.1 µM, respectively.

In the case of `COCCOc1ncnc2[nH]cc(Cc3ccc(Nc4ccc(C)nc4)nc3F)c12` [Compound P-4015, {6-Fluoro-5-[4-(2-methoxy-ethoxy)-7H-pyrrolo[2,3-d]pyrimidin-5-ylmethyl]-pyridin-2-yl}-(6-methyl-pyridin-3-yl)-amine], the results for the IC50 at CYP2C9 and at BCR-FMS BaF3 cells were more than 10 µM and less than 0.01 µM, respectively.

In the case of `CCc1ccc(Nc2ccc(Cc3c[nH]c4ncnc(OCCOC)c34)c(F)n2)cn1` [Compound P-4016, (6-Ethyl-pyridin-3-yl)-{6-fluoro-5-[4-(2-methoxy-ethoxy)-7H-pyrrolo[2,3-d]pyrimidin-5-ylmethyl]-pyridin-2-yl}-amine], the values for the IC50 on CYP2C9 and on BCR-FMS BaF3 cells were more than 10 µM and less than 0.01 µM, respectively.

`CCOc1ncnc2[nH]cc(Cc3ccc(Nc4ccc(C)nc4)nc3F)c12` [Compound P-4017, [5-(4-Ethoxy-7H-pyrrolo[2,3-d]pyrimidin-5-ylmethyl)-6-fluoro-pyridin-2-yl]-(6-methyl-pyridin-3-yl)-amine]: the figures for the IC50 on CYP2C9 and on BCR-FMS BaF3 cells were more than 10 µM and less than 0.01 µM, respectively.

For the compound `CCOc1ncnc2[nH]cc(Cc3ccc(Nc4ccc(OC)nc4)nc3F)c12` [Compound P-4018, [5-(4-Ethoxy-7H-pyrrolo[2,3-d]pyrimidin-5-ylmethyl)-6-fluoro-pyridin-2-yl]-(6-methoxy-pyridin-3-yl)-amine], the IC50 was more than 10 µM on CYP2C9 and less than 0.01 µM at BCR-FMS BaF3 cells.

In the case of `COCCOc1ncnc2[nH]cc(Cc3ccc(Nc4ccc(OC)nc4)nc3F)c12` [Compound P-4019, {6-Fluoro-5-[4-(2-methoxy-ethoxy)-7H-pyrrolo[2,3-d]pyrimidin-5-ylmethyl]-pyridin-2-yl}-(6-methoxy-pyridin-3-yl)-amine], the figures for the IC50 on CYP2C9 and on BCR-FMS BaF3 cells were more than 10 µM and less than 0.01 µM, respectively.

`COc1ccc(Nc2ccc(C(=O)c3c[nH]c4ncnc(C5CC5)c34)c(F)n2)cn1` [Compound P-4022, (4-cyclopropyl-7H-pyrrolo[2,3-d]pyrimidin-5-yl)-[2-fluoro-6-(6-methoxy-pyridin-3-ylamino)-pyridin-3-yl]-methanone]: the IC50 was more than 10 µM at CYP2C9 and less than 0.1 µM at BCR-FMS BaF3 cells.

For `COc1ccc(Nc2ccc(Cc3c[nH]c4ncnc(C5CC5)c34)c(F)n2)cn1` [Compound P-4023, [5-(4-cyclopropyl-7H-pyrrolo[2,3-d]pyrimidin-5-ylmethyl)-6-fluoro-pyridin-2-yl]-(6-methoxy-pyridin-3-yl)-amine], the IC50 at CYP2C9 is more than 10 µM; at BCR-FMS BaF3 cells it was less than 0.01 µM.

For `CCOc1ccc(Nc2ccc(C(=O)c3c[nH]c4ncnc(OC)c34)c(F)n2)cn1` [Compound P-4024, [6-(6-Ethoxy-pyridin-3-ylamino)-2-fluoro-pyridin-3-yl]-(4-methoxy-7H-pyrrolo[2,3-d]pyrimidin-5-yl)-methanone], the IC50 on CYP2C9 was more than 10 µM; at BCR-FMS BaF3 cells, less than 0.1 µM.

In the case of `CCOc1ncnc2[nH]cc(C(=O)c3ccc(Nc4ccc(OC)nc4)nc3F)c12` [Compound P-4025, (4-Ethoxy-7H-pyrrolo[2,3-d]pyrimidin-5-yl)-[2-fluoro-6-(6-methoxy-pyridin-3-ylamino)-pyridin-3-yl]-methanone], the IC50 is more than 10 µM at CYP2C9 and less than 0.1 µM on BCR-FMS BaF3 cells.

Turning to `CCc1ccc(Nc2ccc(Cc3c[nH]c4ncnc(C5CC5)c34)c(F)n2)cn1` [Compound P-4028, [5-(4-Cyclopropyl-7H-pyrrolo[2,3-d]pyrimidin-5-ylmethyl)-6-fluoro-pyridin-2-yl]-(6-ethyl-pyridin-3-yl)-amine], the IC50 at CYP2C9 is 5 to 10 µM; on BCR-FMS BaF3 cells, less than 0.01 µM.

Regarding `CCc1ccc(Nc2ccc(C(=O)c3c[nH]c4ncnc(C5CC5)c34)c(F)n2)cn1` [Compound P-4029, (4-Cyclopropyl-7H-pyrrolo[2,3-d]pyrimidin-5-yl)-[6-(6-ethyl-pyridin-3-ylamino)-2-fluoro-pyridin-3-yl]-methanone], the IC50 is more than 10 µM at CYP2C9 and less than 0.1 µM at BCR-FMS BaF3 cells.

As for `Cc1ccc(Nc2ccc(Cc3c[nH]c4ncnc(C5CC5)c34)c(F)n2)cn1` [Compound P-4030, [5-(4-Cyclopropyl-7H-pyrrolo[2,3-d]pyrimidin-5-ylmethyl)-6-fluoro-pyridin-2-yl]-(6-methyl-pyridin-3-yl)-amine], the IC50 is more than 10 µM on CYP2C9 and less than 0.01 µM at BCR-FMS BaF3 cells.

With `Cc1ccc(Nc2ccc(C(=O)c3c[nH]c4ncnc(C5CC5)c34)c(F)n2)cn1` [Compound P-4031, (4-Cyclopropyl-7H-pyrrolo[2,3-d]pyrimidin-5-yl)-[2-fluoro-6-(6-methyl-pyridin-3-ylamino)-pyridin-3-yl]-methanone], the IC50 at CYP2C9 is more than 10 µM; on BCR-FMS BaF3 cells it was less than 0.1 µM.

Turning to `CCn1cc(Nc2ccc(Cc3c[nH]c4ncnc(C5CC5)c34)c(F)n2)cn1` [Compound P-4036, [5-(4-Cyclopropyl-7H-pyrrolo[2,3-d]pyrimidin-5-ylmethyl)-6-fluoro-pyridin-2-yl]-(1-ethyl-1H-pyrazol-4-yl)-amine], the IC50 was 5 to 10 µM at CYP2C9 and less than 0.1 µM at BCR-FMS BaF3 cells.

Regarding `CCn1cc(Nc2ccc(C(=O)c3c[nH]c4ncnc(C5CC5)c34)c(F)n2)cn1` [Compound P-4037, (4-Cyclopropyl-7H-pyrrolo[2,3-d]pyrimidin-5-yl)-[6-(1-ethyl-1H-pyrazol-4-ylamino)-2-fluoro-pyridin-3-yl]-methanone], the IC50 at CYP2C9 is 5 to 10 µM; on BCR-FMS BaF3 cells, less than 0.1 µM.

Consider `Fc1nc(NC2CCC(F)(F)CC2)ccc1Cc1c[nH]c2ncnc(NCC(F)(F)F)c12` [Compound P-4128, 5-[[6-[(4,4-difluorocyclohexyl)amino]-2-fluoro-3-pyridyl]methyl]-N-(2,2,2-trifluoroethyl)-7H-pyrrolo[2,3-d]pyrimidin-4-amine], for which the figures for the IC50 at CYP2C9 and on BCR-FMS BaF3 cells were more than 10 µM and less than 0.1 µM, respectively.

In the case of `Fc1nc(NC2CCC(F)(F)CC2)ccc1Cc1c[nH]c2ncnc(NC3CC3)c12` [Compound P-4129, N-cyclopropyl-5-[[6-[(4,4-difluorocyclohexyl)amino]-2-fluoro-3-pyridyl]methyl]-7H-pyrrolo[2,3-d]pyrimidin-4-amine], the IC50 on CYP2C9 is 5 to 10 µM; at BCR-FMS BaF3 cells, less than 0.1 µM.

Regarding `Fc1nc(Nc2ccc(C3CC3)nc2)ccc1Cc1c[nH]c2ncnc(NCC(F)(F)F)c12` [Compound P-4130, 5-[[6-[(6-cyclopropyl-3-pyridyl)amino]-2-fluoro-3-pyridyl]methyl]-N-(2,2,2-trifluoroethyl)-7H-pyrrolo[2,3-d]pyrimidin-4-amine], the IC50 on CYP2C9 was more than 10 µM; on BCR-FMS BaF3 cells, less than 0.01 µM.
